Experimental data: the NIST ThermoML archive (doi:10.1021/acs.jced.8b01099)
± gives the expanded uncertainty stated by the source.

Key:
[1] = Crystal; DSC
[2] = Molar enthalpy of transition or fusion; conditions: Crystal; DSC

In the case of CC(C)N1C(=O)N(c2ccccc2)CSC1=NC(C)(C)C [buprofezin], the Triple point temperature [1] is reported as 377.95 ± 1.2 K and the “Molar enthalpy of transition or fusion” value [2] is reported as 7.18 ± 0.239 kcal/mol.
